Like-named read-outs stand apart in the source and are kept apart here.
Tests used:
[1] = test system: Enterococcus faecalis ATCC 29212; test: Antimicrobial activity, agar well diffusion; assay type: cell-based; settings: Dose 0.6 mg/disk, dwell = 6 mm
Aspergillus flavus = test: Antimicrobial activity, agar well diffusion; assay type: cell-based; settings: Dose 0.6 mg/disk, dwell = 6 mm
Text: (§1) Twenty tested microorganisms including six Gram-positive bacteria (Bacillus subtilis ATCC 6633, Bacillus amyloliquefaciens 4BCL-YT, Staphylococcus aureus ATCC 25923, Listeria monocytogenes NBIMCC 8632, Enterococcus faecalis ATCC 19433), six Gram-negative bacteria (Salmonella enteritidis ATCC 13076, Klebsiella sp.—clinical isolate, Escherichia coli ATCC 25922, Proteus vulgaris ATCC 6380, Pseudomonas aeruginosa ATCC 9027), two yeasts (Candida albicans NBIMCC 74, Saccharomyces cerevisiae ATCC 9763), and six fungi (Aspergillus niger ATCC 1015, Aspergillus flavus, Penicillium sp., Rhizopus sp., Mucor sp.—plant isolates, Fusarium moniliforme ATCC 38932) from the collection of the Department of Microbiology at the University of Food Technologies—Plovdiv, Bulgaria, were selected for the antimicrobial activity test. The antimicrobial activity of the samples was determined by the agar well diffusion method. The tested bacteria B. subtilis and B. amyloliquefaciens were cultured on LBG agar at 30 °C. The test bacteria S. aureus, L. monocytogenes, E. faecalis, S. enteritidis, Klebsiella sp., E. coli, P. vulgaris, and P. aeruginosa were cultured on LBG agar at 37 °C for 24 h. The yeast C. albicans was cultured on MEA at 37 °C, while S. cerevisiae was cultured on MEA at 30 °C for 24 h. The fungi A. niger, A. flavus, Penicillium sp., Rhizopus sp., Mucor sp., and F. moniliforme were grown on MEA at 30 °C for 7 days or until sporulation. The inocula of the tested bacteria/yeasts was prepared by homogenization of a small amount of biomass in 5 mL of sterile 0.5% NaCl. The inocula of tested fungi were prepared by the addition of 5 mL of sterile 0.5% NaCl into the tubes. After stirring by vortex V-1 plus (Biosan), they were filtered and replaced in other tubes before use. The number of viable cells and fungal spores was determined using a bacterial counting chamber Thoma (Poly-Optik, GmbH, Bad Blankenburg, Germany). Their final concentrations were adjusted to 10^8 cfu/mL for bacterial/yeast cells and 10^5 cfu/mL for fungal spores and then inoculated in preliminarily melted and tempered at 45–48 °C LBG/MEA agar media. Next, the inoculated media were transferred in a quantity of 18 mL in sterile Petri plates (d = 90 mm) (Gosselin™, Hazebrouck, France) and allowed to harden. Then, six wells (d = 6 mm) per plate were cut, and triplicates of 60 μL of each extract were pipetted into the agar wells. The Petri plates were incubated in identical conditions. The antimicrobial activity was determined by measuring the diameter of the inhibition zones around the wells on the 24th and 48th h of incubation. Tested microorganisms with inhibition zones of 18 mm or more were considered sensitive; moderately sensitive were those in which the zones were from 12 to 18 mm; resistant were those in which the inhibition zones were up to 12 mm or completely missing.

[2] = test system: Aspergillus niger ATCC 1015; test: Antimicrobial activity, agar well diffusion; assay type: cell-based; settings: Dose 0.6 mg/disk, dwell = 6 mm
Text: as §1

[3] = test system: Bacillus subtilis ATCC 6633; test: Antimicrobial activity, agar well diffusion; assay type: cell-based; settings: Dose 0.6 mg/disk, dwell = 6 mm
Text: as §1

[4] = test system: Escherichia coli ATCC 25922; test: Antimicrobial activity, agar well diffusion; assay type: cell-based; settings: Dose 0.6 mg/disk, dwell = 6 mm
Text: as §1

[5] = test system: Listeria monocytogenes NBIMCC 8632; test: Antimicrobial activity, agar well diffusion; assay type: cell-based; settings: Dose 0.6 mg/disk, dwell = 6 mm
Text: as §1

[6] = test system: Micrococcus luteus 2YC-YT; test: Antimicrobial activity, agar well diffusion; assay type: cell-based; settings: Dose 0.6 mg/disk, dwell = 6 mm
Text: as §1

Penicillium chrysogenum = test: Antimicrobial activity, agar well diffusion; assay type: cell-based; settings: Dose 0.6 mg/disk, dwell = 6 mm
Text: as §1

[7] = test system: Proteus vulgaris ATCC 6380; test: Antimicrobial activity, agar well diffusion; assay type: cell-based; settings: Dose 0.6 mg/disk, dwell = 6 mm
Text: as §1

[8] = test system: Pseudomonas aeruginosa ATCC 9027; test: Antimicrobial activity, agar well diffusion; assay type: cell-based; settings: Dose 0.6 mg/disk, dwell = 6 mm
Text: as §1

Rhizopus sp. = test: Antimicrobial activity, agar well diffusion; assay type: cell-based; settings: Dose 0.6 mg/disk, dwell = 6 mm
Text: as §1

[9] = test system: Salmonella enteritidis ATCC 13076; test: Antimicrobial activity, agar well diffusion; assay type: cell-based; settings: Dose 0.6 mg/disk, dwell = 6 mm
Text: as §1

[10] = test system: Salmonella typhimurium NBIMCC 1672; test: Antimicrobial activity, agar well diffusion; assay type: cell-based; settings: Dose 0.6 mg/disk, dwell = 6 mm
Text: as §1

MTT cell viability assay [11] = assay type: cell-based; settings: human, 72 h exposure, ± SD, read-out: In vitro cytotoxicity IC50
Protocol: (§2) To evaluate the biocompatibility of the hybrid compounds, their in vitro antiproliferative activity was assessed in a panel of human malignant cell lines of different origin (K-562 and LAMA-84 suspension-growing myeloid leukemia cells, positive for the Philadelphia chromosome, and the urothelial bladder carcinoma cell line T-24 of adherent type). Non-malignant murine fibroblast cells (CCL-1) were also used as a screening platform. All cell lines were purchased from the German Collection of Microorganisms and Cell Cultures (DSMZ GmbH, Braunschweig, Germany). Cell cultures were cultivated in a growth medium RPMI 1640 supplemented with 10% fetal bovine serum (FBS), and 5% L-glutamine and were incubated under standard conditions of 37 °C and 5% humidified CO2 atmosphere. The effects of the newly synthesized anthranilic derivatives on cell viability were measured using a validated colorimetric assay for evaluating cell viability, known as the Mosmann MTT method. Exponential-phased cells were harvested and seeded (100 μL/well) in 96-well plates at the appropriate density (3 × 10^5 for the suspension cultures LAMA-84 and K-562 and 1.5 × 10^5 for the adherent T-24 and CCL-1 cells). Following a 24 h incubation, cells were treated with various concentrations of the experimental compounds in the concentration range of 200–12.5 μM. After an exposure time of 72 h, filter-sterilized MTT substrate solution (5 mg/mL in PBS) was added to each well of the culture plate. A further 2–4 h incubation allowed for the formation of purple insoluble formazan crystals. The latter was dissolved in isopropyl alcohol solution containing 5% formic acid prior to absorbance measurement at 550 nm. Collected absorbance values were blanked against MTT and isopropanol solution and normalized to the mean value of untreated control (100% cell viability).

MTT cell viability assay [12] = assay type: cell-based, murine; settings: mouse, CCL-1 normal fibroblast cells (adherent); CCL-1, MTT, 72 h exposure, ± SD; read-out: In vitro cytotoxicity IC50
Protocol: as §2

[13] = K-562 myeloid leukemia cells (suspension), K-562, MTT
[14] = LAMA-84 myeloid leukemia cells (suspension), LAMA-84, MTT
[15] = T-24 urothelial bladder carcinoma cells (adherent), T-24, MTT

Compound | Inhibition Zones [1] | Inhibition Zones (Aspergillus flavus) | Inhibition Zones [2] | Inhibition Zones [3] | Inhibition Zones [4] | Inhibition Zones [5] | Inhibition Zones [6] | Inhibition Zones (Penicillium chrysogenum) | Inhibition Zones [7] | Inhibition Zones [8] | Inhibition Zones (Rhizopus sp.) | Inhibition Zones [9] | Inhibition Zones [10] | IC50 at 72 h (MTT cell viability assay [11]; [13]) | IC50 at 72 h (MTT cell viability assay [11]; [14]) | IC50 at 72 h (MTT cell viability assay [11]; [15]) | IC50 at 72 h (MTT cell viability assay [12])
Nc1ccccc1C(=O)NCCc1cccc(Cl)c1 [Compound 3, 2-amino-N-(3-chlorophenethyl)benzamide] | 12 mm | 20 mm | 20 mm | 12 mm | 13 mm | 12 mm | 19 mm | 20 mm | 8 mm | 14 mm | 20 mm | 12 mm | 12 mm | 154 ± 11.1 µM | 115 ± 10.5 µM | 137 ± 12.5 µM | > 200 µM
CC(=O)Nc1ccccc1C(=O)NCCc1cccc(Cl)c1 [Compound 4a, 2-acetamido-N-(3-chlorophenethyl)benzamide] | 12 mm | 8 mm | 10 mm | 8 mm | 9 mm | 8 mm | 10 mm | 13 mm | 8 mm | 9 mm | 8 mm | 12 mm | 8 mm | > 200 µM | 112 ± 9.4 µM | > 200 µM | > 200 µM
O=C(Nc1ccccc1C(=O)NCCc1cccc(Cl)c1)c1ccccc1 [Compound 4b, 2-benzamido-N-(3-chlorophenethyl)benzamide] | 8 mm | 13 mm | 11 mm | 11 mm | 11 mm | 12 mm | 15 mm | 15 mm | 8 mm | 10 mm | 11 mm | 8 mm | 8 mm | 55.2 ± 4.7 µM | 60.7 ± 5.3 µM | 94.9 ± 5 µM | > 200 µM

Reference: PMC10530836, “Synthesis, Molecular Docking, and Biological Evaluation of Novel Anthranilic Acid Hybrid and Its Diamides as Antispasmodics” (International Journal of Molecular Sciences, 2023)
